Assay results reported in US20230271938A1, “BENZIMIDAZOLES FOR USE IN THE TREATMENT OF CANCER AND INFLAMMATORY DISEASES” (Capella Therapeutics, Inc., priority 2015, published 2023).
pIC50: −log10 of the molar value.

What was measured:
BMX = molecular target: T1, BMX (Homo sapiens, UniProt P51813); experiment: Inhibition of BMX kinase; assay type: biochemical; details: 1% DMSO
T1 sequence (P51813 1-675): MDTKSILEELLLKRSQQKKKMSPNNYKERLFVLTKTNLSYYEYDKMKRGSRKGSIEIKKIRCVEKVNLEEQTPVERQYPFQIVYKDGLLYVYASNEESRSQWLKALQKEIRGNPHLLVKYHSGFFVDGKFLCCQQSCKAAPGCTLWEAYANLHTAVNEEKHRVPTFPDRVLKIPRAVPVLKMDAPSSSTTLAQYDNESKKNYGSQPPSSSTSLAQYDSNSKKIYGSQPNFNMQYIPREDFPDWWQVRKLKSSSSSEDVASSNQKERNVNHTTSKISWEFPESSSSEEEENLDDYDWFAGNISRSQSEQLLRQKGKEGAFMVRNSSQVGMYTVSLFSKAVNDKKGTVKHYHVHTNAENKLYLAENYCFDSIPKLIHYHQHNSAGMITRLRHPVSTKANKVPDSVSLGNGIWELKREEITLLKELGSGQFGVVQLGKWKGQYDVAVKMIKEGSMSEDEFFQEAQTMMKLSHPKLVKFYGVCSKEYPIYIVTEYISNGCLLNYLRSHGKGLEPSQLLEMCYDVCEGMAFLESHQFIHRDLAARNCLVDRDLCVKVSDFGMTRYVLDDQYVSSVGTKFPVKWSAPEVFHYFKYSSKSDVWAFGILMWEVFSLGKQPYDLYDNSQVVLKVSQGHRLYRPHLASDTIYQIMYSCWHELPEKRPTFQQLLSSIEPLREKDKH
Source text: The Z′-LYTE® biochemical assay is a fluorescence-based, coupled-enzyme assay based on the differential sensitivity of phosphorylated and non-phosphorylated peptides to proteolytic cleavage. A peptide substrate for a kinase is labeled with two fluorophores, one at each end, to form a FRET pair.
In the primary reaction, the kinase transfers the gamma-phosphate of ATP to a single tyrosine, serine, or threonine residue in the synthetic FRET-peptide substrate. In the secondary reaction, a site-specific protease recognizes and cleaves non-phosphorylated FRET-peptides. Cleavage disrupts FRET between the donor and acceptor fluorophores on the FRET-peptide, whereas uncleaved, phosphorylated FRET-peptides maintain FRET. An inhibitory activity of a compound is thus determined from its effect on the cleavage of the synthetic FRET-peptide substrate.
Inhibition of BMX, BTK, ITK, and TXK kinases by a test compound is determined in 50 mM HEPES, pH 7.5, 0.01% BRIJ-35, 10 mM MgCl2, and 1 mM EGTA in the presence of 1% DMSO by volume.
(§1) Inhibition of BMX, BTK, PIK3C-D, ITK, TEC, and TXK kinases by compound A2 was measured using one of the assays described in Examples 2A and 3A.

[1] = system: human epidermal keratinocytes, neonatal, or HEKn cells (wild-type ERBB1); experiment: Cell proliferation assay, HEKn; assay type: cell-based; details: Keratinocyte, 72 hrs
Description: The biological activity of a test compound was determined using cell proliferation assays. The activity against wild-type ERBB 1 was determined using A431 human epidermoid carcinoma cells (ATCC) and human epidermal keratinocytes, neonatal, or HEKn cells (ATCC).
A431 cells were grown in DMEM (Invitrogen) supplemented with 10% FBS (Lonza), 1% penicillin-streptomycin, and 2 mM glutamine (Invitrogen). HEKn cells were grown in EPILIFE® (Invitrogen) supplemented with HKGS (Invitrogen). HCC827 and H1975 were cultured in RPMI1640 supplemented with 10% FBS (Lonza), 1% penicillin-streptomycin, and 2 mM glutamine (Invitrogen). Cells were maintained and propagated at 37° C. and 5% CO2 in a humidified cell culture incubator. Aliquots of cells from early passages were preserved for liquid nitrogen storage. Frozen vials of cells were thawed at 37° C. water bath. Cells were spun to remove freezing medium. The newly revived frozen cells were adapted in culture for 10 days before used for compound testing. Cells used in the assay were less than 20 subculture passages or 3 months in culture.
The test compounds were dissolved in dimethylsulfoxide (DMSO) and stored at -20° C. before testing. […] The cells were placed in a culture incubator overnight. Next day, test compounds in DMSO were added to the cells and placed back in the culture incubator for 72 hrs. In the meantime, the cell numbers at time zero of the compound treatment (T0) was measured by ENERCOUNT® (Codex BioSolutions). At the end of the compound treatment, the cell numbers were again measured by EnerCount as T72 values. The untreated controls (Ctrl) were cell numbers recorded from the 0.1% DMSO treatment. The percent growth inhibition by the test compound was calculated by the formula: (1- (T72-T0)/(Ctrl-T0)) x 100.
The results are summarized in Tables 1 and 2, wherein A represents a value no greater than 500 nM, B represents a value greater than 500 nM but no greater than 1 µM, C represents a value greater than 1 µM but no greater than 5 µM, and D represents a value greater than 5 µM; and wherein A′ represents a ratio of greater than 10, B′ represents a ratio of no greater than 10 but no less than 5, C′ represents a ratio of no greater than 5 but no less than 2, and D′ represents a ratio of no greater than 2.

TEC = molecular target: T2, TEC (Homo sapiens, UniProt P42680); experiment: Inhibition of TEC kinase; assay type: binding; details: 1% DMSO
T2 sequence (P42680 1-631): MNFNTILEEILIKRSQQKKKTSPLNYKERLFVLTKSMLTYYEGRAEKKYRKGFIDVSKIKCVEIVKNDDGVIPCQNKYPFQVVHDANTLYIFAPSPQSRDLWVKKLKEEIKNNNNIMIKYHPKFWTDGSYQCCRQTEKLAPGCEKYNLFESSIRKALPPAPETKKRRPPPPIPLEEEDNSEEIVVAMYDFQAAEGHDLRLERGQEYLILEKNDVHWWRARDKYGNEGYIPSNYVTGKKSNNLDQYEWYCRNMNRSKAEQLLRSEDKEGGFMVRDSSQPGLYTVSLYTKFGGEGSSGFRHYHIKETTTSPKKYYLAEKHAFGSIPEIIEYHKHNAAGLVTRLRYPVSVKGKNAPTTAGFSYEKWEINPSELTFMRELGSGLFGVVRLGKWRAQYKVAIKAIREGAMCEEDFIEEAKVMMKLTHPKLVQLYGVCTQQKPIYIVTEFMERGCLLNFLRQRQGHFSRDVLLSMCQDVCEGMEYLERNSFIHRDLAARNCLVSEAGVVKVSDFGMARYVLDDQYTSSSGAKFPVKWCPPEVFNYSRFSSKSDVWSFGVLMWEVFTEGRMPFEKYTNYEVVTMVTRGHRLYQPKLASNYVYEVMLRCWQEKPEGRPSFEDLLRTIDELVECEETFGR
Description: Binding of an ALEXA FLUOR® conjugate or “tracer” to a kinase is detected by addition of a Eu-labeled anti-tag antibody. Binding of the tracer and antibody to a kinase results in a high degree of FRET, whereas displacement of the tracer with a kinase inhibitor results in a loss of FRET. An inhibitory activity of a compound is thus determined from the extent of the FRET signal loss. Inhibition of ITK and TEC kinases by a test compound is determined in the presence of 1% DMSO.
as §1

- pIC50 (BMX): ≥ 8.00
- pIC50 (TEC): ≥ 8.00
SMILES: C=CC(=O)N1CCCC[C@@H](n2c(NC(=O)c3ccnc(C)c3)nc3cccc(OC4CCN(C(C)=O)CC4)c32)C1 [Compound A2, (R)-N-(7-((1-acetylpiperidin-4-yl)oxy)-1-(1-acryloylazepan-3-yl)-1H-benzo[d]imidazol-2-yl)-2-methylisonicotinamide]
- Inhibition (BMX): A (A represents a value no greater than 10 nM or no less than 90% inhibition)
- GI50 [1]: > 5000 nM
- Inhibition (TEC): A (A represents a value no greater than 10 nM or no less than 90% inhibition)
